Data reported in patent US4218436A, “Compounds and methods” (The Upjohn Company, priority 1979, dated 1980).

Legend:
[1] = test system: antiserum raised against 9-deoxy-9-methylene PGF2 (BSA Conjugate); assay: RIA cross-reactivity, displacement of [^3 H] PGE2 from antiserum (BSA Conjugate); type: binding, rabbit; details: relative to PGE2; ng. required to displace 50% of [^3 H] PGE2
Procedure: (§1) Five milligrams of KLH-PGE2 mimic conjugate is added to 2.25 ml. of sterile saline (0.9%) and 2.25 ml. of Freund's complete adjuvant and blended. 1.0 ml. of this mixture is injected subcutaneously at 20-30 sites on the flanks of four Albino New Zealand rabbits of 2-4 kg. mass. Each rabbit receives a dose of about 1 mg. On the same day, 1.0 ml. of attenuated pertussis vaccine is injected intramuscularly at four sites on the hindquarters of each rabbit.
(§2) A known amount of PGE-type compound in 0.1 ml. PBSG buffer at pH 7.4±0.2 and 0.1 ml. of the radiolabeled form of the same PGE-type compound (10,000 cpm/0.1 ml. PBSG) are introduced into a 12×75 mm. polypropylene tube. Antiserum (0.1 ml.) against the corresponding mimic is added at a dilution which will bind 50%±3% of the radiolabeled authentic PGE-type compound in the absence of competition from the unlabeled PGE-type compound. The tube is incubated for 1 hour at 25° and then 12-16 hours at 4°. Antibody bound and free fractions are separated with dextran-coated charcoal. Other separation techniques are acceptable.
(§3) The data below show the cross-reactivity of antiserum raised against 9-deoxy-9-methylene PGF2 to various PGE-type compounds, relative to PGE2. Percent crossreaction is defined as (ng. of PGE2 required to displace 50% of [^3 H] PGE2)/(ng. heterologous PG required to displace 50% of [^3 H] PGE2)×100.

[2] = test system: antiserum raised against 9-deoxy-9-methylene PGF2 (KLH Conjugate); assay: RIA cross-reactivity, displacement of [^3 H] PGE2 from antiserum (KLH Conjugate); type: binding, rabbit; details: relative to PGE2; ng. required to displace 50% of [^3 H] PGE2
Procedure: as §1, §2, §3

% Cross-Reaction BSA Conjugate [1]: 2.9%
% Cross-Reaction KLH Conjugate [2]: 0.09%
Structure (SMILES): CCCCC[C@H](O)/C=C/[C@@H]1[C@@H](CCCCCCC(=O)O)[C@@H](O)C[C@H]1O [PGF1 α]
